Experiments:
[1] = target: T1, TGF-β Type I (RIT204D) receptor (Homo sapiens, UniProt P36897, T204D); test: TGF-β Receptor I (RIT204D) in vitro kinase reaction; format: biochemical; details: 6×-HIS cytoplasmic kinase domain, 4 uM ATP, 30° C., 1 hr
T1 construct: The 6×-HIS tagged cytoplasmic kinase domain of each receptor was expressed and purified from Sf9 insect cell lysates; 6xHis; made in house; host or cells: Sf9 insect cells
T1 sequence (P36897 148-503 T204D limits assumed): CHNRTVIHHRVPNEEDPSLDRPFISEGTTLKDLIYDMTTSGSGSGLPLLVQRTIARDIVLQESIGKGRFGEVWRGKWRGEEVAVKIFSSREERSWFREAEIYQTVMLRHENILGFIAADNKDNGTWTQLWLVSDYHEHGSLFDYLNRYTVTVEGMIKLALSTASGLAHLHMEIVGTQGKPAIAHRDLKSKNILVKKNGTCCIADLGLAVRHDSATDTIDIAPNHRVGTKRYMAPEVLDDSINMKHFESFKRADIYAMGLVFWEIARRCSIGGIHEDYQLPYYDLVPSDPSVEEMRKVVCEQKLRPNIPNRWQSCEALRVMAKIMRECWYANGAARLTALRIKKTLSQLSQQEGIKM
Procedure: (§1) TGF-β Receptor I and II Purification and in vitro Kinase Reactions
(§2) For TGF-β Type I (RIT204D) and Type II (RII WT) Receptors: The 6×-HIS tagged cytoplasmic kinase domain of each receptor was expressed and purified from Sf9 insect cell lysates as briefly described below:
(§3) Cell pellets after 48-72 hrs of infection were lysed in lysis buffer (LB: 50 mM Tris pH 7.5, 150 mM NaCl, 50 mM NaF, 0.5% NP40 with freshly added 20 mM, β-mercaptoethanol, 10 mM imidazole, 1 mM PMSF, 1×EDTA-free Complete Protease Inhibitor (Boehringer Mannheim).
(§4) Reactions: 170-200 nM enzyme in 1×KB, compound dilution series in 1×KB/16% DMSO (20 uM to 1 nM final concentration with 4% DMSO final concentration), reactions started by adding ATP mix (4 uM ATP/1 uCi ^33P-[…]-ATP final concentrations) in 1×KB.
(§5) Reactions were incubated at 30° C. for 1 hr RIT204D or 40 min for RII WT. Reactions were stopped and quantitated using standard TCA/BSA precipitation onto Millipore FB glass fiber filter plates and by liquid scintillation counting on a MicroBeta JET.

[2] = target: T2, TGF-β Type II (RII WT) receptor (Homo sapiens, UniProt P37173); test: TGF-β Receptor II (RII WT) in vitro kinase reaction; format: biochemical; details: 6×-HIS cytoplasmic kinase domain, 4 uM ATP, 30° C., 40 min
T2 construct: The 6×-HIS tagged cytoplasmic kinase domain of each receptor was expressed and purified from Sf9 insect cell lysates; 6xHis; made in house; host or cells: Sf9 insect cells
T2 sequence (P37173 244-544 limits assumed): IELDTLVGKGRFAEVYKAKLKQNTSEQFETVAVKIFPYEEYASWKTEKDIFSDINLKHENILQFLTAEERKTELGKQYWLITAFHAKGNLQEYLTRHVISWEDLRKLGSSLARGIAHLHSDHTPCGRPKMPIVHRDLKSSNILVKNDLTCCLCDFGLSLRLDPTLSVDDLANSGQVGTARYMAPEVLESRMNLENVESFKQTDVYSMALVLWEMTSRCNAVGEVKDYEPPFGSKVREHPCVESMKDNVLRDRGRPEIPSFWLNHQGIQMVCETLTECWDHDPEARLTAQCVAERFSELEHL
Procedure: as §1, §2, §3
Cell lysates were clarified: by centrifugation and […] filtered prior to purification by Ni/NTA affinity chromatography (Qiagen).
Equilibrate with 10 CV of LB, load sample, wash with 10 CV RIPA buffer (50 mM Tris pH 7.5, 150 mM NaCl, 1% NP40, 1 mM EDTA, 0.25% sodium deoxycholate, added fresh 20 mM β-mercaptoethanol, 1 mM PMSF), wash with 10 CV LB, wash with 10 CV 1×KB (50 mM Tris pH 7.5, 150 mM NaCl, 4 mM MgCl2, 1 mM NaF, 2 mM β-mercaptoethanol), elute with a linear gradient of 1×KB containing 200 mM Imidazole.
Both enzymes were approximately 90% pure and had autophosphorylation activity.
as §4, §5

| SMILES | IC50 [1] [µM] | IC50 [2] [µM] |
| --- | --- | --- |
| Cc1cccc(-c2nn3c(c2-c2cccnc2)CCC3)n1 [2-(6-methyl-pyridin-2-yl)-3-pyridin-3-yl-5,6-dihydro-4H-pyrrolo[1,2-b]pyrazole] | < 20 |  |
| OC1CCCc2c(-c3ccnc4ccccc34)c(-c3ccccn3)nn21 (stereo not shown) [2-Pyridin-2-yl-3-quinolin-4-yl-pyrazolo[1,5-a]piperidin-7-ol] |  | < 20 |
| Cc1cccc(-c2nn3c(c2-c2ccc(F)cc2)CCC3)n1 [3-(4-Fluorophenyl)-2-(6-methylpyridin-2-yl)-5,6-dihydro-4H-pyrrolo[1,2-b]pyrazole] | < 20 |  |
| COc1ccc(-c2c(-c3cccc(C)n3)nn3c2CCC3)cc1 [3-(4-Methoxyphenyl)-2-(6-methylpyridin-2-yl)-5,6-dihydro-4H-pyrrolo[1,2-b]pyrazole] | < 20 |  |
| O=C1OCCN1c1ccc2c(-c3c(-c4ccccn4)nn4c3CCC4)ccnc2c1 [3-[4-(2-Pyridin-2-yl-5,6-dihydro-4H-pyrrolo[1,2-b]pyrazol-3-yl)-quinolin-7-yl]-oxazolidin-2-one] |  | < 20 |
| COC(=O)/C=C/c1ccc2c(-c3c(-c4cccc(C)n4)nn4c3CCC4)ccnc2c1 [3-{4-[2-(6-Methyl-pyridin-2-yl)-5,6-dihydro-4H-pyrrolo[1,2-b]pyrazol-3-yl]-quinolin-7-yl}-acrylic acid methyl ester] | < 20 |  |
| Cc1cccc(-c2nn3c(c2-c2ccnc4cc(C=CC(=O)O)ccc24)CCC3)n1 [3-{4-[2-(6-Methyl-pyridin-2-yl)-5,6-dihydro-4H-pyrrolo[1,2-b]pyrazol-3-yl]-quinolin-7-yl}-acrylic acid] |  | < 20 |
| CN(C)CCCN(C)C(=O)c1ccc2c(-c3c(-c4ccccn4)nn4c3CCC4)ccnc2c1 [4-(2-Pyridin-2-yl-5,6-dihydro-4H-pyrrolo[1,2-H]pyrazol-3-yl)-quinoline-7-carboxylic acid(3-dimethylamino-propyl)-methyl-amide] | < 20 |  |
| Nc1ccc2c(-c3c(-c4ccccn4)nn4c3CCC4)ccnc2c1 [4-(2-Pyridin-2-yl-5,6-dihydro-4H-pyrrolo[1,2-b]pyrazol-3-yl)-quinolin-7-ylamine] |  | < 20 |
| O=C(NC1CC1)c1ccc2c(-c3c(-c4ccccn4)nn4c3CCC4)ccnc2c1 [4-(2-Pyridin-2-yl-5,6-dihydro-4H-pyrrolo[1,2-b]pyrazol-3-yl)-quinoline-7-carboxylic acid cyclopropylamide] |  | < 20 |
| CCCNC(=O)c1ccc2c(-c3c(-c4ccccn4)nn4c3CCC4)ccnc2c1 [4-(2-Pyridin-2-yl-5,6-dihydro-4H-pyrrolo[1,2-b]pyrazol-3-yl)-quinoline-7-carboxylic acid propylamide] | < 20 |  |
| O=C(Nc1ccccn1)c1ccc2c(-c3c(-c4ccccn4)nn4c3CCC4)ccnc2c1 [4-(2-Pyridin-2-yl-5,6-dihydro-4H-pyrrolo[1,2-b]pyrazol-3-yl)-quinoline-7-carboxylic acid pyridin-2-ylamide] |  | < 20 |
| CCC(C)CNC(=O)c1ccc2c(-c3c(-c4ccccn4)nn4c3CCC4)ccnc2c1 (stereo not shown) [4-(2-Pyridin-2-yl-5,6-dihydro-4H-pyrrolo[1,2-b]pyrazol-3-yl)-quinoline-7-carboxylic acid(2-methyl-butyl)-amide] |  | < 20 |
| c1csc(-c2nn3c(c2-c2ccnc4ccccc24)CCC3)c1 [4-(2-Thiophen-2-yl-5,6-dihydro-4H-pyrrolo[1,2-b]pyrazol-3-yl)quinoline] | < 20 |  |
| Clc1cccc(-c2nn3c(c2-c2ccnc4ccccc24)CCCC3)c1 [4-[2-(3-Chloro-phemyl)-4,5,6,7-tetrahydro-pyrazolo[1,5-alpyridin-3-y]-quinoline] | < 20 |  |
| FC(F)(F)Oc1cccc(-c2nn3c(c2-c2ccnc4ccccc24)CCC3)c1 [4-[2-(3-Trifluoromethoxy-phenyl)-5,6-dihydro-4H-pyrrolo[1,2-b]pyrazol-3-yl]-quinoline] | < 20 |  |
| FC(F)(F)c1cccc(-c2nn3c(c2-c2ccnc4ccccc24)CCC3)c1 [4-[2-(3-Trifluoromethylphenyl)-5,6-dihydro-4H-pyrrolo[1,2-b]pyrazol-3-yl]-quinoline] |  | < 20 |
| c1ccc(Cc2cccc(-c3nn4c(c3-c3ccnc5ccccc35)CCC4)n2)cc1 [4-[2-(6-Benzyl-pyridin-2-yl)-5,6-dihydro-4H-pyrrolo[1,2-b]pyrazol-3-yl]-quinoline] | < 20 |  |
| Cc1cccc(-c2nn3c(c2-c2ccnc4ccc(-c5ccccc5)cc24)CCC3)n1 [4-[2-(6-Methyl-pyridin-2-yl)-5,6-dihydro-4H-pyrrolo[1,2-b]pyrazol-3-yl]-6-phenyl-quinoline] |  | < 20 |
| COc1cccc(C2Cc3c(-c4ccnc5ccccc45)c(-c4ccccn4)nn3C2)c1 (stereo not shown) [4-[5-(3-Methoxy-phenyl)-2-pyridin-2-yl-5,6-dihydro-4H-pyrrolo[1,2-b]pyrazol-3-yl]-quinoline] |  | < 20 |
| ClCCCOc1ccc2c(-c3c(-c4ccccn4)nn4c3CCC4)ccnc2c1 [7-(3-Chloro-propoxy)-4-(2-pyridin-2-yl-5,6-dihydro-4H-pyrrolo[1,2-b]pyrazol-3-yl)-quinoline] |  | < 20 |
| CC(C)c1cc(-c2c(-c3ccccn3)nn3c2CCC3)c2ccc(Br)cc2n1 [7-Bromo-2-isopropyl-4-(2-pyridin-2-yl-5,6-dihydro-4H-pyrrolo[1,2-b]pyrazol-3-yl)-quinoline] |  | < 20 |
| CS(=O)(=O)c1ccc2c(-c3c(-c4ccccn4)nn4c3CCC4)ccnc2c1 [7-Methanesulfonyl-4-(2-pyridin-2-yl-5,6-dihydro-4H-pyrrolo[1,2-b]pyrazol-3-yl)-quinoline] | < 20 |  |
| CN(C)CCOc1ccc2c(-c3c(-c4ccccn4)nn4c3CCC4)ccnc2c1 [Dimethyl-{2-[4-(2-pyridin-2-yl-5,6-dihydro-4H-pyrrolo[1,2-b]pyrazol-3-yl)-quinolin-7-yloxy]-ethyl}-amine] |  | < 20 |
| CN(C)CCCOc1ccc2c(-c3c(-c4ccccn4)nn4c3CCC4)ccnc2c1 [Dimethyl-{3-[4-(2-pyridin-2-yl-5,6-dihydro-4H-pyrrolo[1,2-b]pyrazol-3-yl)-quinolin-7-yloxy]-propyl}-amine] | < 20 | < 20 |
| CN(C)CCCCOc1cc(-c2c(-c3ccccn3)nn3c2CCC3)ccn1 [Dimethyl-{4-[4-(2-pyridin-2-yl-5,6-dihydro-4H-pyrrolo[1,2-b]pyrazol-3-yl)-pyridin-2-yloxy]-butyl}-amine] | < 20 |  |
| CCN(C)CCCOc1ccc2c(-c3c(-c4ccccn4)nn4c3CCC4)ccnc2c1 [Ethyl-methyl-{3-[4-(2-pyridin-2-yl-5,6-dihydro-4H-pyrrolo[1,2-b]pyrazol-3-yl)-quinolin-7-yloxy]-propyl}-amine] |  | < 20 |
| CN(C)CCCNc1cc(-c2c(-c3ccccn3)nn3c2CCC3)ccn1 [N,N-Dimethyl-N′-[4-(2-pyridin-2-yl-5,6-dihydro-4H-pyrrolo[1,2-b]pyrazol-3-yl)-pyridin-2-yl]-propane-1,3-diamine] | < 20 |  |
| CC(=O)NCCCOc1ccc2c(-c3c(-c4ccccn4)nn4c3CCC4)ccnc2c1 [N-{3-[4-(2-Pyridin-2-yl-5,6-dihydro-4H-pyrrolo[1,2-b]pyrazol-3-yl)-quinolin-7-yloxy]-propyl}-acetamide] | < 20 |  |
| Cc1cccc(-c2nn3c(c2-c2ccnc4cc(Br)ccc24)CCC3CO)n1 (stereo not shown) [[3-(7-Bromo-quinolin-4-yl)-2-(6-methyl-pyridin-2-yl)-5,6-dihydro-4H-pyrrolo[1,2-b]pyrazol-6-yl]3-methanol] |  | < 20 |
